From PubChem BioAssay (NCI)
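Values below derive from 48-hour exposures of cells grown in 96-well plates, with endpoints linearly interpolated between the two concentrations bracketing the appropriate inhibition level. TGI is the concentration that stops growth completely.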

Columns and labels:
Test in all cases: inhibition of tumour cell growth, NCI panel, 48 h
A549 NSCLC = test system: A549 NSCLC
HCT-116 colon = test system: HCT-116 colon
HCT-15 colon = test system: HCT-15 colon
HL-60(TB) leukemia = test system: HL-60(TB) leukemia
HT29 colon = test system: HT29 colon
K-562 leukemia = test system: K-562 leukemia
KM12 colon = test system: KM12 colon
MCF7 breast = test system: MCF7 breast
MDA-MB-231 breast = test system: MDA-MB-231 breast
MOLT-4 leukemia = test system: MOLT-4 leukemia
NCI-H460 lung = test system: NCI-H460 lung
OVCAR-8 ovarian = test system: OVCAR-8 ovarian
SK-MEL-2 melanoma = test system: SK-MEL-2 melanoma
SK-MEL-28 melanoma = test system: SK-MEL-28 melanoma
SK-OV-3 ovarian = test system: SK-OV-3 ovarian
SNB-19 CNS = test system: SNB-19 CNS
SNB-75 CNS = test system: SNB-75 CNS
U251 CNS = test system: U251 CNS
DU-145 prostate = test system: DU-145 prostate

Row | SMILES | TGI (A549 NSCLC) | TGI (HCT-116 colon) | TGI (HCT-15 colon) | TGI (HL-60(TB) leukemia) | TGI (HT29 colon) | TGI (K-562 leukemia) | TGI (KM12 colon) | TGI (MCF7 breast) | TGI (MDA-MB-231 breast) | TGI (MOLT-4 leukemia) | TGI (NCI-H460 lung) | TGI (OVCAR-8 ovarian) | TGI (SK-MEL-2 melanoma) | TGI (SK-MEL-28 melanoma) | TGI (SK-OV-3 ovarian) | TGI (SNB-19 CNS) | TGI (SNB-75 CNS) | TGI (U251 CNS) | TGI (DU-145 prostate)
1 | CN(/N=C/c1ccccn1)C1=NCCN1 | > 100 µM | > 100 µM | > 100 µM | > 100 µM | > 100 µM | > 100 µM | > 100 µM | > 100 µM | > 100 µM | > 100 µM | > 100 µM | > 100 µM | > 100 µM | > 100 µM | > 100 µM | > 100 µM | > 100 µM | > 100 µM | –
2 | CC[C@@H]1CC[C@@H]2[C@H](CC[C@]3(C)[C@@H](O[N+](=O)[O-])CC[C@@H]23)[C@H]1C(C)=O | > 100 µM | > 100 µM | > 100 µM | 37 µM | 33.4 µM | > 100 µM | 80.7 µM | 83.1 µM | 75.1 µM | > 100 µM | 76 µM | > 100 µM | – | > 100 µM | – | > 100 µM | > 100 µM | > 100 µM | > 100 µM
3 | COC(=O)/C=C1\C(CO[Si](C)(C)C(C)(C)C)OC(n2ccc(=O)[nH]c2=O)C1O (centres undefined) | 82.9 µM | 16.9 µM | 35.2 µM | – | 80.5 µM | > 95.4 µM | > 39.4 µM | 31.4 µM | > 100 µM | > 31.6 µM | 37.8 µM | > 100 µM | 21.1 µM | 21.4 µM | – | > 100 µM | > 100 µM | > 87.3 µM | 32.7 µM
4 | CN(Cc1cccc2ccsc12)/N=C\c1ccc(Cl)cc1 | > 100 µM | > 100 µM | > 100 µM | – | > 100 µM | > 100 µM | > 100 µM | > 100 µM | > 100 µM | > 100 µM | > 100 µM | > 100 µM | – | > 100 µM | > 100 µM | > 100 µM | > 100 µM | > 100 µM | > 100 µM
5 | Cc1cn([C@H]2C[C@@H](N3C(=O)c4ccccc4C3=O)[C@@H](CO[Si](C)(C)C(C)(C)C)O2)c(=O)[nH]c1=O | > 100 µM | > 100 µM | > 100 µM | – | 51.7 µM | > 100 µM | > 100 µM | > 100 µM | > 100 µM | > 100 µM | > 100 µM | > 100 µM | > 100 µM | > 100 µM | > 100 µM | > 100 µM | 60.8 µM | > 100 µM | > 100 µM
6 | C/C=C1/C=CC2c3[nH]c4ccccc4c3CCN2C1 (centres undefined) | > 400 µM | > 400 µM | > 400 µM | > 400 µM | > 400 µM | > 400 µM | > 400 µM | – | – | > 400 µM | > 400 µM | > 400 µM | > 400 µM | > 400 µM | > 400 µM | > 400 µM | – | > 400 µM | –
7 | CCOc1ccc(NC(=O)C(=O)C(/C(=N/N)C(=O)OC)c2nc3ccc([N+](=O)[O-])cc3[nH]c2=O)cc1 (centres undefined) | > 100 µM | > 100 µM | > 100 µM | – | > 100 µM | > 100 µM | > 100 µM | > 100 µM | > 100 µM | > 100 µM | > 100 µM | > 100 µM | > 100 µM | > 100 µM | > 100 µM | > 100 µM | > 100 µM | > 100 µM | > 100 µM
8 | CC(=O)Nc1ccc2c(c1)C(=O)c1ccccc1-2 | > 100 µM | > 100 µM | > 100 µM | > 100 µM | > 100 µM | > 100 µM | > 100 µM | – | – | > 100 µM | > 100 µM | > 100 µM | – | > 100 µM | > 100 µM | > 100 µM | > 100 µM | > 100 µM | –
9 | COC(=O)C1(CCCCl)CCCN1C(=O)OC(C)(C)C (centres undefined) | > 100 µM | > 100 µM | > 100 µM | – | > 100 µM | > 100 µM | > 100 µM | > 100 µM | > 100 µM | – | > 100 µM | – | > 100 µM | > 100 µM | > 100 µM | > 100 µM | > 100 µM | > 100 µM | > 100 µM
10 | CCOC(=O)C1(C)CCC(C(=O)OC)C1=O (centres undefined) | > 100 µM | > 100 µM | 43.1 µM | > 100 µM | > 100 µM | > 100 µM | > 100 µM | – | – | > 100 µM | 28.6 µM | > 100 µM | > 100 µM | > 100 µM | > 100 µM | > 100 µM | > 100 µM | > 100 µM | –
11 | COC(=O)N/N=c1\cc(C(=O)Nc2ccc(C)c(C)c2)oc2cc(O)ccc12 | > 100 µM | > 100 µM | > 100 µM | > 100 µM | > 100 µM | > 100 µM | > 100 µM | – | – | > 100 µM | > 100 µM | > 100 µM | > 100 µM | > 100 µM | > 100 µM | > 100 µM | > 100 µM | > 100 µM | –
12 | CCOC(=O)c1cn(-c2ccc([N+](=O)[O-])cc2)c(=S)n2c1nc1ccccc12 | > 100 µM | > 100 µM | > 100 µM | – | > 100 µM | > 100 µM | > 100 µM | > 100 µM | > 100 µM | 75.7 µM | > 100 µM | > 100 µM | 76.7 µM | > 100 µM | – | > 100 µM | > 100 µM | > 100 µM | > 100 µM
13 | c1ccc(C(NC2=NCCO2)C2CC2)cc1 (centres undefined) | > 100 µM | > 100 µM | > 100 µM | – | > 100 µM | – | > 100 µM | > 100 µM | > 100 µM | > 100 µM | > 100 µM | > 100 µM | > 100 µM | > 100 µM | > 100 µM | > 100 µM | > 100 µM | > 100 µM | > 100 µM
14 | COC(=O)/C(=N\N)C(C(=O)C(=O)Nc1cc(Cl)ccc1Cl)c1nc2ccc([N+](=O)[O-])cc2[nH]c1=O (centres undefined) | > 100 µM | > 100 µM | > 100 µM | > 100 µM | > 100 µM | > 100 µM | > 100 µM | > 100 µM | > 100 µM | > 100 µM | > 100 µM | > 100 µM | > 100 µM | > 100 µM | > 100 µM | – | > 100 µM | > 100 µM | –
